# Measurements from ChEMBL document CHEMBL1133382, “Probing the extended binding determinants of oligosaccharyl transferase with synthetic inhibitors of asparagine-linked glycosylation” (Bioorg Med Chem Lett, 2000).
# Starred links: 1 amine or outer side, 2 acyl side, 3 side chain; linkers in the order of their positions; H or OH if unused. Positions of bridges follow the written chain, without caps; N, C: chain ends. Non-standard residues stand in square brackets, D forms with d. Residues, ends and D or L forms follow the SMILES beside them. *: point of attachment. Phe(4-NO2) = N[C@@H](Cc1ccc([N+](=O)[O-])cc1)C(=O)O; X1 = O=C(CCCCC[*:2])[*:1]; Dab = NCC[C@H](N)C(=O)O; X3 = c1ccc2cc(*)ccc2c1
# Biological target: T1, Dolichyl-diphosphooligosaccharide--protein glycosyltransferase 48 kDa subunit (UniProt P39656)
# T1 sequence (P39656 whole entry): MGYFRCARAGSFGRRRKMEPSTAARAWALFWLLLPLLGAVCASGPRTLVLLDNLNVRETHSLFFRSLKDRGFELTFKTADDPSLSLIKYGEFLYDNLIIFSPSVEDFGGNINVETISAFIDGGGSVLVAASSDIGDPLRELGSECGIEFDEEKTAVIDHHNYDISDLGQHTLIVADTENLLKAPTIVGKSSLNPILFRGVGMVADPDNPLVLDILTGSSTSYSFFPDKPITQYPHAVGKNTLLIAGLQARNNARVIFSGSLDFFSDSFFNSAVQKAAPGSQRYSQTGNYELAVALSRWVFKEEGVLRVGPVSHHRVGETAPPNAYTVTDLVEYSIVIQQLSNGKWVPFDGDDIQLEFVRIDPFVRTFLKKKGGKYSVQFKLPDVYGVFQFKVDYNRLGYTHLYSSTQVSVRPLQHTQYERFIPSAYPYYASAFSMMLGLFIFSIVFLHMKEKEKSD
# Assay: Inhibition of asparagine-linked glycosylation by oligosaccharyl transferase
# Design: species or system Saccharomyces cerevisiae
row,SMILES,Ki [nM]
1,CC(C)[C@H](NC(=O)[C@@H](NC(=O)[C@@H]1CSCCCCCC(=O)N[C@@H](CCN)C(=O)N1)[C@@H](C)O)C(=O)N[C@H](C(N)=O)[C@@H](C)O,82
2,CC(C)[C@H](NC(=O)[C@@H](NC(=O)CNC(=O)[C@H](CCCNCc1ccccc1)NCc1ccccc1)[C@@H](C)O)C(=O)N[C@H](C(N)=O)[C@H](C)O,> 5000
3,COc1ccc(CNCCC[C@H](NCc2ccccc2)C(=O)NCC(=O)N[C@H](C(=O)N[C@H](C(=O)N[C@H](C(N)=O)[C@@H](C)O)C(C)C)[C@@H](C)O)cc1 (HELM PEPTIDE1{[COc1ccc(CNCCC[C@H](NCc2ccccc2)C(=O)[*:2])cc1].G.T.V.T.[am]}$$$$V2.0),305
4,"[H][C@@](NC(=O)[C@@H]1CSCCCCCC(=O)N[C@@H](CCN)C(=O)N1)(C(=O)N[C@H](C(=O)N[C@H](C(=O)N[C@@H](Cc1ccc([N+](=O)[O-])cc1)C(N)=O)[C@@H](C)O)C(C)C)[C@@H](C)O (HELM PEPTIDE1{[Dab].C.T.V.T.[O=C([C@H](Cc1ccc([N+](=O)[O-])cc1)N[*:1])[*:2]].[am]}|CHEM1{[O=C(CCCCC[*:2])[*:1]]}$PEPTIDE1,CHEM1,1:R1-1:R1|PEPTIDE1,CHEM1,2:R3-1:R2$$$V2.0)",37
5,CC(C)[C@H](NC(=O)[C@@H](NC(=O)CNC(=O)[C@H](CCCNCc1ccc([N+](=O)[O-])cc1)NCc1ccccc1)[C@@H](C)O)C(=O)N[C@H](C(N)=O)[C@@H](C)O (HELM PEPTIDE1{[O=C([C@H](CCCNCc1ccc([N+](=O)[O-])cc1)NCc1ccccc1)[*:2]].G.T.V.T.[am]}$$$$V2.0),154

# More lines, in order of falling Ki, values ahead:
row,Ki [nM],SMILES
1,61,CCCCCCCCCCNCC[C@@H]1NC(=O)CCCCCSC[C@@H](C(=O)N[C@H](C(=O)N[C@H](C(=O)N[C@H](C(=O)N[C@@H](Cc2ccc([N+](=O)[O-])cc2)C(N)=O)[C@@H](C)O)C(C)C)[C@@H](C)O)NC1=O
2,50,CC(C)[C@H](NC(=O)[C@@H](NC(=O)[C@@H]1CSCCCCCC(=O)N[C@@H](CCN)C(=O)N1)[C@@H](C)O)C(=O)N[C@H](C(=O)NCCCCc1ccccc1)[C@@H](C)O
3,44,CC(C)[C@H](NC(=O)[C@@H](NC(=O)[C@@H]1CSCCCCCC(=O)N[C@@H](CCN)C(=O)N1)[C@@H](C)O)C(=O)N[C@H](C(=O)NCCc1ccccc1)[C@@H](C)O
4,40,CC(C)[C@H](NC(=O)[C@@H](NC(=O)[C@@H]1CSCCCCCC(=O)N[C@@H](CCNc2ccc3ccccc3c2)C(=O)N1)[C@@H](C)O)C(=O)N[C@H](C(=O)N[C@@H](Cc1ccc([N+](=O)[O-])cc1)C(N)=O)[C@@H](C)O ([Dab](X3)CTVT[Phe(4-NO2)]-NH2; linker N-2 via X1)
5,20,CC(C)[C@H](NC(=O)[C@@H](NC(=O)[C@@H]1CSCCCCCC(=O)N[C@@H](CCN)C(=O)N1)[C@@H](C)O)C(=O)N[C@H](C(=O)NCCc1ccc([N+](=O)[O-])cc1)[C@@H](C)O
6,10,CC(C)[C@H](NC(=O)[C@@H](NC(=O)[C@@H]1CSCCCCCC(=O)N[C@@H](CCNc2ccc3ccccc3c2)C(=O)N1)[C@@H](C)O)C(=O)N[C@H](C(=O)NCCc1ccc([N+](=O)[O-])cc1)[C@@H](C)O
